Data reported in patent US4241087A, “Dysmenorrhea treatment” (William H. Rorer, Inc., priority 1979, dated 1980).

Columns and labels:
Format in all cases: cell-based
[1] = tested on: Ach induced contractions in the isolated gravid rat uterus; experiment: Ach induced contractions, isolated gravid rat uterus (isometric, non-cumulative dose response); conditions: for inhibition at 160 µg/mL / inhibition at 40 µg/mL / inhibition at 80 µg/mL: Rattus norvegicus; for inhibition at 40 µg/mL: compound 40 μg/ml; for inhibition at 80 µg/mL: compound 80 μg/ml
Protocol: (§1) Female virgin Wistar rats at an average weight of 160 g to 220 g are used for the experiment. Prior to the experiment, the animals are housed five per group and maintained according to standard animal husbandry procedures. The animals are treated with DES (100 mg/kg/body weight) 24 hours prior to the experiment.
(§2) The stage of the estrus cycle is determined by vaginal smears on the morning of the experiment. Rats in estrus are killed by a blow on the head and the abdomen is opened. The two horns of the uterus are dissected out and transferred to a dish containing Bathing's solution (composition in g: NaCL, 8.046; KCl, 0.20; CaCl2.2H2 O, 0.132; MgCl2.6H2 O, 0.106; NaHCO3, 1.0; NaH2 PO4, 0.065; Dextrose, 1.0 distilled to 1 liter with distilled water). The two horns are separated and freed from mesentery in Bathing's solution. A thread is attached at each end of each horn and the uterine segment is mounted in a tissue bath (50 ml), maintained at 37° C. by a circulatory bath and aerated with 95% O2 5% CO2. One thread is attached to a fixed pin and the other to a transducer. Contractions are recorded isometrically on a Beckman dynograph in conjunction with a Grass force-displacement transducer (FTO3C) of which has been calibrated in g. tension, or isotonically in conjunction with a Harvard smooth muscle transducer (386). The tissue is subjected to a baseline tension of 0.5 g. The preparation is allowed to equilibrate for 30 minutes prior to the experiment.
(§3) Various spasmogens (such as: acetylcholine chloride, PGF2a, PGE2, oxytocin, BaCl2 or ergonivine maleate) may be used to induce contractions in the isolated uterine strip. See "In Vitro Methodology for Evaluation of Compound Effect on Isolated Guinea Pig Ileum" for description of obtaining dose response curve. Afer the control dose-response curve is obtained, the tissue is allowed to relax for five minutes before the addition of the spasmolytic drug (inhibitory drug). The test drug is in contact with the tissue for two minutes before the dose-response curve is repeated. The inhibitory effect of the test drug is determined as follows: [formula]
(§4) The % maximum response is calculated for each dose of the dose-response curve and the control and drug curves are plotted.
(§5) The dose-response behavior on the isolated gravid rat uterus of Acetylcholine chloride, Oxytocin and PGF2a was compared in the presence and absence of varying doses of 1-(2',6'-dimethylphenyl)-3-methylamidinourea hydrochloride using the non-cumulative dose response method.

[2] = tested on: Oxytocin induced contractions in the isolated gravid rat uterus; experiment: Oxytocin induced contractions, isolated gravid rat uterus (isometric, non-cumulative dose response); conditions: for inhibition at 40 µg/mL / inhibition at 80 µg/mL / inhibition at 160 µg/mL: Rattus norvegicus; for inhibition at 40 µg/mL: compound 40 μg/ml; for inhibition at 80 µg/mL: compound 80 μg/ml; for inhibition at 160 µg/mL: compound 160 μg/ml
Protocol: as §1, §2, §3, §4, §5

[3] = tested on: PGF2α induced contractions in the isolated gravid rat uterus; experiment: PGF2α induced contractions, isolated gravid rat uterus (isometric, non-cumulative dose response); conditions: for inhibition at 40 µg/mL / inhibition at 80 µg/mL / inhibition at 160 µg/mL: Rattus norvegicus; for inhibition at 40 µg/mL: compound 40 μg/ml; for inhibition at 80 µg/mL: compound 80 μg/ml; for inhibition at 160 µg/mL: compound 160 μg/ml
Protocol: as §1, §2, §3, §4, §5

[4] = increasing doses of compound, in vitro gravid rat uterus

Question: How did the inhibition at 160 µg/mL ([1]; ACH-2, compound 160 μg/ml, Ach 2,560 μg/ml) turn out when `CNC(=N)NC(=O)Nc1c(C)cccc1C.Cl` [1-(2',6'-dimethylphenyl)-3-methylamidinourea hydrochloride] was run?
Answer: Its inhibition at 160 µg/mL is 67.4%.

Question: And the inhibition at 40 µg/mL ([1]; Ach 20 μg/ml)?
Answer: Its inhibition at 40 µg/mL is 100%.

Question: And the inhibition at 40 µg/mL ([1]; Ach 40 μg/ml)?
Answer: Its inhibition at 40 µg/mL is 83%.

Question: What about the inhibition at 40 µg/mL ([1]; Ach 80 μg/ml) of the same molecule?
Answer: The inhibition at 40 µg/mL was 79.7%.

Question: And the inhibition at 40 µg/mL ([1]; Ach 160 μg/ml)?
Answer: Its inhibition at 40 µg/mL is 46.8%.

Question: What about the inhibition at 40 µg/mL ([1]; Ach 320 μg/ml) of the same molecule?
Answer: Its inhibition at 40 µg/mL is 2.8%.

Question: And the inhibition at 40 µg/mL ([1]; Ach 640 μg/ml)?
Answer: The inhibition at 40 µg/mL was under 2.8%.

Question: And the inhibition at 80 µg/mL ([1]; Ach 20 μg/ml)?
Answer: The inhibition at 80 µg/mL was 100%.

Question: And the inhibition at 80 µg/mL ([1]; Ach 40 μg/ml)?
Answer: The inhibition at 80 µg/mL was 100%.

Question: What about the inhibition at 80 µg/mL ([1]; Ach 80 μg/ml) of the same molecule?
Answer: Its inhibition at 80 µg/mL is 100%.

Question: And the inhibition at 80 µg/mL ([1]; Ach 160 μg/ml)?
Answer: Its inhibition at 80 µg/mL is 95.8%.

Question: And the inhibition at 80 µg/mL ([1]; Ach 320 μg/ml)?
Answer: The inhibition at 80 µg/mL was 26.8%.

Question: What about the inhibition at 80 µg/mL ([1]; Ach 640 μg/ml) of the same molecule?
Answer: The inhibition at 80 µg/mL was under 26.8%.

Question: And the inhibition at 160 µg/mL ([1]; compound 160 μg/ml, Ach 20 μg/ml)?
Answer: The inhibition at 160 µg/mL was 100%.

Question: What about the inhibition at 160 µg/mL ([1]; compound 160 μg/ml, Ach 40 μg/ml) of the same molecule?
Answer: Its inhibition at 160 µg/mL is 100%.

Question: And the inhibition at 160 µg/mL ([1]; compound 160 μg/ml, Ach 80 μg/ml)?
Answer: Its inhibition at 160 µg/mL is 100%.

Question: And the inhibition at 160 µg/mL ([1]; compound 160 μg/ml, Ach 160 μg/ml)?
Answer: The inhibition at 160 µg/mL was 100%.

Question: And the inhibition at 160 µg/mL ([1]; compound 160 μg/ml, Ach 320 μg/ml)?
Answer: Its inhibition at 160 µg/mL is 93.3%.

Question: And the inhibition at 160 µg/mL ([1]; compound 160 μg/ml, Ach 640 μg/ml)?
Answer: Its inhibition at 160 µg/mL is 93.6%.

Question: What about the inhibition at 160 µg/mL ([1]; compound 160 μg/ml, Ach 1,280 μg/ml) of the same molecule?
Answer: Its inhibition at 160 µg/mL is 84.6%.

Question: And the inhibition at 160 µg/mL ([1]; compound 160 μg/ml, Ach 5,120 μg/ml)?
Answer: The inhibition at 160 µg/mL was 61.2%.

Question: And the inhibition at 160 µg/mL ([1]; compound 160 μg/ml, Ach 10,240 μg/ml)?
Answer: Its inhibition at 160 µg/mL is 62.7%.

Question: And the “inhibition of Acetylcholine chloride induced contractions (in words)” value [1, 4]?
Answer: The value was “dose dependent”.

Question: What about the inhibition at 40 µg/mL ([2]; Oxytocin 1 × 10^-4 U/ml) of the same molecule?
Answer: Its inhibition at 40 µg/mL is under 22.1%.

Question: And the inhibition at 40 µg/mL ([2]; Oxytocin 1 × 10^-5 U/ml)?
Answer: Its inhibition at 40 µg/mL is 100%.

Question: And the inhibition at 40 µg/mL ([2]; Oxytocin 3 × 10^-5 U/ml)?
Answer: The inhibition at 40 µg/mL was 22.1%.

Question: And the inhibition at 80 µg/mL ([2]; Oxytocin 1 × 10^-4 U/ml)?
Answer: Its inhibition at 80 µg/mL is 14.4%.

Question: And the inhibition at 80 µg/mL ([2]; Oxytocin 1 × 10^-5 U/ml)?
Answer: The inhibition at 80 µg/mL was 100%.

Question: What about the inhibition at 80 µg/mL ([2]; Oxytocin 3 × 10^-4 U/ml) of the same molecule?
Answer: The inhibition at 80 µg/mL was under 14.4%.

Question: What about the inhibition at 80 µg/mL ([2]; Oxytocin 3 × 10^-5 U/ml) of the same molecule?
Answer: The inhibition at 80 µg/mL was 48.7%.

Question: What about the inhibition at 160 µg/mL ([2]; Oxytocin 1 × 10^-3 U/ml) of the same molecule?
Answer: The inhibition at 160 µg/mL was 47.6%.

Question: What about the inhibition at 160 µg/mL ([2]; Oxytocin 1 × 10^-4 U/ml) of the same molecule?
Answer: The inhibition at 160 µg/mL was 100%.

Question: What about the inhibition at 160 µg/mL ([2]; Oxytocin 1 × 10^-5 U/ml) of the same molecule?
Answer: Its inhibition at 160 µg/mL is 100%.

Question: And the inhibition at 160 µg/mL ([2]; Oxytocin 3 × 10^-3 U/ml)?
Answer: The inhibition at 160 µg/mL was 32.5%.

Question: What about the inhibition at 160 µg/mL ([2]; Oxytocin 3 × 10^-4 U/ml) of the same molecule?
Answer: The inhibition at 160 µg/mL was 63.2%.

Question: And the inhibition at 160 µg/mL ([2]; Oxytocin 3 × 10^-5 U/ml)?
Answer: Its inhibition at 160 µg/mL is 100%.

Question: And the “inhibition of Oxytocin induced contractions (in words)” value [2, 4]?
Answer: The value was “dose dependent”.

Question: What about the inhibition at 40 µg/mL ([3]; PGF2α 1 × 10^-7 M) of the same molecule?
Answer: The inhibition at 40 µg/mL was 39.5%.

Question: What about the inhibition at 40 µg/mL ([3]; PGF2α 1 × 10^-8 M) of the same molecule?
Answer: Its inhibition at 40 µg/mL is 99%.

Question: And the inhibition at 40 µg/mL ([3]; PGF2α 3 × 10^-7 M)?
Answer: The inhibition at 40 µg/mL was under 39.5%.

Question: And the inhibition at 40 µg/mL ([3]; PGF2α 3 × 10^-8 M)?
Answer: The inhibition at 40 µg/mL was 95.1%.

Question: What about the inhibition at 80 µg/mL ([3]; PGF2α 1 × 10^-6 M) of the same molecule?
Answer: Its inhibition at 80 µg/mL is under 48.9%.

Question: What about the inhibition at 80 µg/mL ([3]; PGF2α 1 × 10^-7 M) of the same molecule?
Answer: The inhibition at 80 µg/mL was 64%.

Question: What about the inhibition at 80 µg/mL ([3]; PGF2α 1 × 10^-8 M) of the same molecule?
Answer: The inhibition at 80 µg/mL was 98.2%.

Question: And the inhibition at 80 µg/mL ([3]; PGF2α 3 × 10^-7 M)?
Answer: Its inhibition at 80 µg/mL is 48.9%.

Question: What about the inhibition at 80 µg/mL ([3]; PGF2α 3 × 10^-8 M) of the same molecule?
Answer: The inhibition at 80 µg/mL was 91.3%.

Question: And the inhibition at 160 µg/mL ([3]; PGF2α 1 × 10^-6 M)?
Answer: The inhibition at 160 µg/mL was 96.1%.

Question: What about the inhibition at 160 µg/mL ([3]; PGF2α 1 × 10^-7 M) of the same molecule?
Answer: Its inhibition at 160 µg/mL is 98.5%.

Question: What about the inhibition at 160 µg/mL ([3]; PGF2α 1 × 10^-8 M) of the same molecule?
Answer: Its inhibition at 160 µg/mL is 100%.

Question: What about the inhibition at 160 µg/mL ([3]; PGF2α 3 × 10^-6 M) of the same molecule?
Answer: Its inhibition at 160 µg/mL is 86.8%.

Question: What about the inhibition at 160 µg/mL ([3]; PGF2α 3 × 10^-7 M) of the same molecule?
Answer: The inhibition at 160 µg/mL was 96.1%.

Question: What about the inhibition at 160 µg/mL ([3]; PGF2α 3 × 10^-8 M) of the same molecule?
Answer: Its inhibition at 160 µg/mL is 100%.

Question: And the “inhibition of PGF2a induced contractions (in words)” value [3, 4]?
Answer: Its value is “dose dependent”.
